What was measured:
[1] = test system: EGFR mutant (L858R, ex19del and T790M) cancer models; details: in vitro and in vivo; cited from earlier work
WT EGFR = WT EGFR (Homo sapiens, UniProt P00533); details: at clinically relevant efficacious concentrations; cited from earlier work
[2] = test system: PD-L1 (CD274) on tumor cells; assay: Effects of targeted agents on PD-L1 modulation (real time PCR and flow cytometry), summary; format: cell-based, human
From the text: This example evaluates the effects of selected therapeutic agents (e.g., INC280, MEK162, LGX818 and LDK378) on PD-L1 (CD274) modulation. Selected therapeutic agents were examined by real time PCR and flow cytometry on PD-L1 levels.

[3] = test system: PD-L1 (CD274) mRNA in LOXIMV1 tumors; assay: TaqMan RT PCR of PD-L1 mRNA in LOXIMV1 tumor xenograft model; format: in vivo, human; details: tumor xenograft model bearing LOXIMV1 (BRAF mutant melanoma), FIG. 4
Method: (§1) TaqMan RT PCR assays were developed to detect changes of expression levels of PD-L1 (CD274) in cell lines and xenograft tumors. mRNA was isolated from frozen cell pellets or tumor fragments using the Qiagen RNeasy Mini kit. Isolated RNA was frozen at −80° C. RNA quality was checked and RNA was quantified using a 2100 Agilent Bioanalyzer following the protocol for the Agilent RNA 6000 Nano Kit. cDNA was prepared using a High Capacity RNA- to cDNA Kit (Applied Biosystems).
(§2) Real-time PCR reactions were carried out in 20 μl total volume, including 10 μl of Universal PCR master mix (Applied Biosystems), 1 μl of human PD-L1 (CD274) probe/primer set (Applied Biosystems), and 8 μl of cDNA. Each sample was run in triplicate. The amount of cDNA produced from 25-50 ng of RNA in the reverse transcription reaction was used in each PCR reaction. Due to difference in mRNA levels between PD-L1 and GAPDH, the two real-time PCR reactions were done in separate tubes using same amount of cDNA. The real-time PCR reaction was run on the C1000 Thermal Cycle (BioRad) with the cycle program as follows: a 10 minute incubation at 95° C. followed by 40 cycles of 95° C. for 15 seconds and 60° C. for 1 minute. After the reaction was complete, the PD-L1 average Ct was normalized relative to each Ct value from the GAPDH reference reaction. Each normalized logarithmic value was then converted into a linear value.

[4] = test system: PD-L1 (CD274) mRNA in H3122 cells; assay: TaqMan RT PCR of PD-L1 mRNA in H3122 cells in vitro; format: cell-based, human; details: H3122 (NSCLC with ALK translocation) in vitro, FIG. 3
Method: as §1, §2

[5] = test system: PD-L1 (CD274) mRNA in HEYA8 tumors; assay: TaqMan RT PCR of PD-L1 mRNA in HEYA8 tumor xenograft model; format: in vivo, human; details: tumor xenograft model bearing HEYA8 (KRAS mutant ovarian cancer), FIG. 5
Method: as §1, §2

[6] = test system: PD-L1 (CD274) mRNA in Hs.746.T tumor xenograft; assay: TaqMan RT PCR of PD-L1 mRNA in Hs.746.T tumor xenograft; format: in vivo, human; details: Hs.746.T tumor (gastric cancer, cMET amplification & mutation) xenograft, FIG. 2
Method: as §2, with “TaqMan RT PCR assays were developed to detect changes of expression levels of PD-L1 (CD274) in cell lines and xenograft tumors. mRNA was isolated from frozen cell pellets or tumor fragments using the Qiagen RNeasy Mini kit. Isolated RNA was frozen at −80° C. RNA quality was checked and RNA was quantified using a 2100 Agilent Bioanalyzer following the protocol for the Agilent RNA 6000 Nano Kit. cDNA was prepared using a High Capacity RNA- to cDNA Kit (Applied Biosystems). Real-time” for “Real-time”

[7] = test system: PD-L1 (CD274) surface expression in EBC-1 cells; assay: Flow cytometry of PD-L1 surface expression in EBC-1 cells in vitro; format: cell-based, human; details: EBC-1 cells (NSCLC with cMET amplification), FIG. 1
Method: PD-L1 (CD274) expression was analyzed in cancer cell lines treated with INC280. Cells were obtained from ATCC and cultured in vitro following ATCC directions. The cell lines used were previously characterized by the Cancer Cell Line Encyclopedia Project (http://www.broadinstitute.org/ccle/home). Cells plated in six-well culture plates were treated with the INC280 at different concentrations (10 nM, 100 nM, and 1000 nM) for 24, 48 and 72 hours. Equal amount of vehicle (DMSO) was used as a control. Cells were washed with PBS and then harvested using a cell scraper. For each reaction, 0.5-1×10^6 cells were stained with 20 μL of anti-human monoclonal PD-L1-PE antibody, clone M1H1 (BD) for 30-60 minutes at 4° C. Cells were washed twice and data was acquired using a Canto II with FACSDiva software (BD Bioscience). Data analysis was performed using FlowJo software (Tree Star). Mean fluorescence intensity (MFI) was determined by gating on single cells. Unstained cells were used as a gating control.

Sequence of WT EGFR (P00533 25-1210): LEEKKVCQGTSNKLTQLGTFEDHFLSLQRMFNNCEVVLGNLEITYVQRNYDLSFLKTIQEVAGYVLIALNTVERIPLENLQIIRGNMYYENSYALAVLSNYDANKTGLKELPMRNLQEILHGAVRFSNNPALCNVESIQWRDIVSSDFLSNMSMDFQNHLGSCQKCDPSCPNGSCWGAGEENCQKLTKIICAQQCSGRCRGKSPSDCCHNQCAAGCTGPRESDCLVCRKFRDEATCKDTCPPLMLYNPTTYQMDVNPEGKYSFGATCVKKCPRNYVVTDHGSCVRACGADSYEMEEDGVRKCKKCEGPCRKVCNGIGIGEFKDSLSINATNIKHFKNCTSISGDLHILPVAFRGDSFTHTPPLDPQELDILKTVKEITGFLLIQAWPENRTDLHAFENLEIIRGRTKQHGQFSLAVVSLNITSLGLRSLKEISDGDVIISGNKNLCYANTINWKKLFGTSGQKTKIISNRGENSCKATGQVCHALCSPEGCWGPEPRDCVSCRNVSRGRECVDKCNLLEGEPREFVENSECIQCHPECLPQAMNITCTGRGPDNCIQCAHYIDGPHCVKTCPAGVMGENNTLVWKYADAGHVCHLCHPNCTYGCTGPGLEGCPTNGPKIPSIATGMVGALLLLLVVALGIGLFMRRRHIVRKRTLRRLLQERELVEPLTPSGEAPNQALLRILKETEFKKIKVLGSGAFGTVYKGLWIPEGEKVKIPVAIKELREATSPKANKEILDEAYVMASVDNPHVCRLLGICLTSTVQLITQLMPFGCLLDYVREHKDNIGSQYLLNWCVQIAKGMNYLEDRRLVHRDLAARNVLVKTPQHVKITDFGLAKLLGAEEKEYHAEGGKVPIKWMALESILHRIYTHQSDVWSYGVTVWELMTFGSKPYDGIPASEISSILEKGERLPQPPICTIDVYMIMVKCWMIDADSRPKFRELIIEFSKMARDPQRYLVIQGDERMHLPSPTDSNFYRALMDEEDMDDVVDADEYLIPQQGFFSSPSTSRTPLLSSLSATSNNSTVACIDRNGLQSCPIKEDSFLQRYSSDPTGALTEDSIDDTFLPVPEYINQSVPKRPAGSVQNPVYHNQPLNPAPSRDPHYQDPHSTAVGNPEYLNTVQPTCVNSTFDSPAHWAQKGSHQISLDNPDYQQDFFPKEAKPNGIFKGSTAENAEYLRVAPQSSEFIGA

Cc1cc(C(=O)Nc2nc3cccc(Cl)c3n2[C@@H]2CCCCN(C(=O)/C=C/CN(C)C)C2)ccn1 [EGF816, (R,E)-N-(7-chloro-1-(1-(4-(dimethylamino)but-2-enoyl)azepan-3-yl)-1H-benzo[d]imidazol-2-yl)-2-methylisonicotinamide]
efficacy in EGFR mutant cancer models [1]: significant efficacy
WT EGFR inhibition (WT EGFR): no indication of WT EGFR inhibition

COC(=O)N[C@@H](C)CNc1nccc(-c2cn(C(C)C)nc2-c2cc(Cl)cc(NS(C)(=O)=O)c2F)n1 [LGX818, methyl (S)-(1-((4-(3-(5-chloro-2-fluoro-3-(methylsulfonamido)phenyl)-1-isopropyl-1H-pyrazol-4-yl)pyrimidin-2-yl)amino)propan-2-yl)carbamate]
inhibition of PD-L1 on tumor cells [2]: Significant inhibition
PD-L1 mRNA [3]: Downregulation

Cc1cc(Nc2ncc(Cl)c(Nc3ccccc3S(=O)(=O)C(C)C)n2)c(OC(C)C)cc1C1CCNCC1 [LDK378, 5-chloro-N2-(2-isopropoxy-5-methyl-4-(piperidin-4-yl)-phenyl)-N4-[2-(propane-2-sulfonyl)-phenyl]-pyrimidine-2,4-diamine, reference compound]
inhibition of PD-L1 on tumor cells [2]: Significant inhibition
PD-L1 mRNA [4]: Inhibition

Cn1cnc2c(F)c(Nc3ccc(Br)cc3F)c(C(=O)NOCCO)cc21 [MEK162, 5-((4-bromo-2-fluorophenyl)amino)-4-fluoro-N-(2-hydroxyethoxy)-1-methyl-1H-benzo[d]imidazole-6-carboxamide]
PD-L1 mRNA [5]: Downregulation
inhibition of PD-L1 on tumor cells [2]: Significant inhibition

CNC(=O)c1ccc(-c2cnc3ncc(Cc4ccc5ncccc5c4)n3n2)cc1F [INC280, 2-fluoro-N-methyl-4-[7-(quinolin-6-ylmethyl)imidazo[1,2-b][1,2,4]triazin-2-yl]benzamide]
inhibition of PD-L1 on tumor cells [2]: Significant inhibition
PD-L1 expression (mRNA) [6]: Inhibition
surface expression of PD-L1 [7]: significant downregulation
